Data reported in patent US12264159B2, “Functionalized heterocycles as antiviral agents” (Enanta Pharmaceuticals, Inc., priority 2018, dated 2025).

Tests used:
HBV in 2.2.15 cells = assay: 2.2.15 cells: viral product in cell lysates quantified via quantitative real time PCR; format: cell-based, hepatitis B virus (HBV); conditions: Hepatitis B virus, 120 h, day 5 post treatment, 50% reduction of viral product vs no drug controls, readout (qPCR, HBsAg or HBeAg) not specified for the column
Method in brief: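 2.2.15 cells (35,000/well, DMEM/F12, 10% FBS, G418) were treated with 5-fold serial compound dilutions, 0.5% DMSO final. After 5 days, lysates were quantified by qPCR, or supernatant HBsAg/HBeAg by ELISA; EC50 is the concentration giving 50% reduction versus no-drug controls.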

[1] = Compound induced cellular toxicity in HepG2 cells, ATPlite 1Step; format: cell-based; conditions: human, three days exposure, 50% reduction of total ATP vs no drug controls
Protocol: At day 3, post seeding cells are treated with ATPlite 1Step according to the manufacturer's instructions.

| SMILES | EC50 (HBV in 2.2.15 cells) | CC50 at 3 days [1] |
| --- | --- | --- |
| C[C@@H]1Cn2nc(-c3ccccc3F)c(-c3ccccc3F)c2-c2cc(=O)c(C(=O)O)cn21 [Example 206, (R)-1,2-bis(2-fluorophenyl)-6-methyl-10-oxo-5,6-dihydro-10H-pyrazolo[1,5-a]pyrido[2,1-c]pyrazine-9-carboxylic acid] | < 0.1 µM | 10 to 25 µM |
| CC(C)(C)[C@@H]1Cn2nc(-c3cccc(F)c3)c(-c3cccc(F)c3)c2-c2cc(=O)c(C(=O)O)cn21 [Example 94, (R)-6-(tert-butyl)-1,2-bis(3-fluorophenyl)-10-oxo-5,6-dihydro-10H-pyrazolo[1,5-a]pyrido[2,1-c]pyrazine-9-carboxylic acid] | < 0.1 µM | > 25 µM |
| CC(C)[C@@H]1Cn2nc(-c3ccccc3F)c(-c3ccccc3F)c2-c2c(F)c(=O)c(C(=O)O)cn21 [Example 182, (R)-11-fluoro-1,2-bis(2-fluorophenyl)-6-isopropyl-10-oxo-5,6-dihydro-10H-pyrazolo[1,5-a]pyrido[2,1-c]pyrazine-9-carboxylic acid] | < 0.1 µM | > 25 µM |
| CC(C)(C)[C@@H]1Cn2nc(C3CC3)c(-c3cccs3)c2-c2cc(=O)c(C(=O)O)cn21 [Example 156, (R)-6-(tert-butyl)-2-cyclopropyl-10-oxo-1-(thiophen-2-yl)-5,6-dihydro-10H-pyrazolo[1,5-a]pyrido[2,1-c]pyrazine-9-carboxylic acid] | < 0.1 µM | > 25 µM |
| CC(C)(C)[C@@H]1Cn2nc(-c3ccc(F)c(F)c3F)cc2-c2cc(=O)c(C(=O)O)cn21 [Example 44, (R)-6-(tert-butyl)-10-oxo-2-(2,3,4-trifluorophenyl)-5,6-dihydro-10H-pyrazolo[1,5-a]pyrido[2,2-c]pyrazine-12-carboxylic acid] | < 0.1 µM | > 25 µM |
| CC(C)(C)[C@@H]1Cn2nc(-c3cccc4c3OCCCO4)cc2-c2cc(=O)c(C(=O)O)cn21 [Example 43, (R)-6-(tert-butyl)-2-(3,4-dihydro-2H-benzo[b][1,4]dioxepin-6-yl)-10-oxo-5,6-dihydro-10H-pyrazolo[1,5-a]pyrido[2,2-c]pyrazine-12-carboxylic acid] | < 0.1 µM | > 25 µM |
| CC(C)(C)[C@@H]1Cn2nc(C3CC3)c(-c3cccc(F)c3)c2-c2cc(=O)c(C(=O)O)cn21 [Example 147, (R)-6-(tert-butyl)-2-cyclopropyl-1-(3-fluorophenyl)-10-oxo-5,6-dihydro-10H-pyrazolo[1,5-a]pyrido[2,1-c]pyrazine-9-carboxylic acid] | < 0.1 µM | > 25 µM |
| COc1ccccc1-c1cnn2c1-c1cc(=O)c(C(=O)O)cn1[C@H](C(C)(C)C)C2 [Example 112, (R)-6-(tert-butyl)-1-(2-methoxyphenyl)-10-oxo-5,6-dihydro-10H-pyrazolo[1,5-a]pyrido[2,1-c]pyrazine-9-carboxylic acid] | < 0.1 µM | > 25 µM |
| COc1ccc(OC(F)(F)F)c(-c2cc3n(n2)C[C@@H](C(C)(C)C)n2cc(C(=O)O)c(=O)cc2-3)c1 [Example 34, (R)-6-(tert-butyl)-2-(5-methoxy-2-(trifluoromethoxy)phenyl)-10-oxo-5,6-dihydro-10H-pyrazolo[1,5-a]pyrido[2,2-c]pyrazine-12-carboxylic acid] | < 0.1 µM | > 25 µM |
| CC(C)[C@@H]1Cn2nc(C3CC3)c(-c3ccoc3)c2-c2cc(=O)c(C(=O)O)cn21 [Example 132, (R)-2-cyclopropyl-1-(furan-3-yl)-6-isopropyl-10-oxo-5,6-dihydro-10H-pyrazolo[1,5-a]pyrido[2,1-c]pyrazine-9-carboxylic acid] | < 0.1 µM | > 25 µM |
| CC(C)(C)[C@@H]1Cn2nc(C3CC3)c(-c3ccccc3)c2-c2cc(=O)c(-c3ncn[nH]3)cn21 [Example 195, (R)-6-(tert-butyl)-2-cyclopropyl-1-phenyl-9-(1H-1,2,4-triazol-5-yl)-5,6-dihydro-10H-pyrazolo[1,5-a]pyrido[2,1-c]pyrazin-10-one] | < 0.1 µM | > 25 µM |
| CCOc1ccc(OC)cc1-c1cc2n(n1)C[C@@H](C(C)(C)C)n1cc(C(=O)O)c(=O)cc1-2 [Example 37, (R)-6-(tert-butyl)-2-(2-ethoxy-5-methoxyphenyl)-10-oxo-5,6-dihydro-10H-pyrazolo[1,5-a]pyrido[2,2-c]pyrazine-12-carboxylic acid] | < 0.1 µM | > 25 µM |
| COc1ccc(-c2c(C3CC3)nn3c2-c2cc(=O)c(C(=O)O)cn2[C@H](C(C)(C)C)C3)cc1 [Example 158, (R)-6-(tert-butyl)-2-cyclopropyl-1-(4-methoxyphenyl)-10-oxo-5,6-dihydro-10H-pyrazolo[1,5-a]pyrido[2,1-c]pyrazine-9-carboxylic acid] | < 0.1 µM | > 25 µM |
| CC(C)[C@@H]1Cn2nc(-c3cccc(F)c3)c(-c3cccc(F)c3)c2-c2cc(=O)c(C(=O)O)cn21 [Example 181, (R)-1,2-bis(3-fluorophenyl)-6-isopropyl-10-oxo-5,6-dihydro-10H-pyrazolo[1,5-a]pyrido[2,1-c]pyrazine-9-carboxylic acid] | < 0.1 µM | 10 to 25 µM |
| COc1cccc(-c2nn3c(c2-c2cccc(OC)c2)-c2cc(=O)c(C(=O)O)cn2[C@H](C(C)(C)C)C3)c1 [Example 97, (R)-6-(tert-butyl)-1,2-bis(3-methoxyphenyl)-10-oxo-5,6-dihydro-10H-pyrazolo[1,5-a]pyrido[2,1-c]pyrazine-9-carboxylic acid] | < 0.1 µM | > 25 µM |
| CC(C)(C)[C@@H]1Cn2nc(C3CC3)c(-c3ccc(F)cc3)c2-c2cc(=O)c(C(=O)O)cn21 [Example 146, (R)-6-(tert-butyl)-2-cyclopropyl-1-(4-fluorophenyl)-10-oxo-5,6-dihydro-10H-pyrazolo[1,5-a]pyrido[2,1-c]pyrazine-9-carboxylic acid] | < 0.1 µM | > 25 µM |
| O=C(O)c1cn2c(cc1=O)-c1c(-c3cccc(F)c3)c(-c3cccc(F)c3)nn1C[C@H]2C1COC1 [Example 209, (R)-1,2-bis(3-fluorophenyl)-6-(oxetan-3-yl)-10-oxo-5,6-dihydro-10H-pyrazolo[1,5-a]pyrido[2,1-c]pyrazine-9-carboxylic acid] | < 0.1 µM | > 25 µM |
| CC(C)(C)[C@@H]1Cn2nc(-c3ccccc3OC(F)F)cc2-c2cc(=O)c(C(=O)O)cn21 [Example 68, (R)-6-(tert-butyl)-2-(2-(difluoromethoxy)phenyl)-10-oxo-5,6-dihydro-10H-pyrazolo[1,5-a]pyrido[2,2-c]pyrazine-12-carboxylic acid] | < 0.1 µM | > 25 µM |
| CC(C)[C@@H]1Cn2nc(-c3ccccc3)c(-c3ccccc3)c2-c2c(F)c(=O)c(C(=O)O)cn21 [Example 186, (R)-11-fluoro-6-isopropyl-10-oxo-1,2-diphenyl-5,6-dihydro-10H-pyrazolo[1,5-a]pyrido[2,1-c]pyrazine-9-carboxylic acid] | < 0.1 µM | > 25 µM |
| CC(C)(C)[C@@H]1Cn2nc(-c3cccc4c3OCO4)cc2-c2cc(=O)c(C(=O)O)cn21 [Example 26, (R)-2-(benzo[d][1,3]dioxol-4-yl)-6-(tert-butyl)-10-oxo-5,6-dihydro-10H-pyrazolo[1,5-a]pyrido[2,2-c]pyrazine-12-carboxylic acid] | < 0.1 µM | > 25 µM |
